Reference: ChEMBL document CHEMBL4011593, “Development of 2, 4-diaminoquinazoline derivatives as potent PAK4 inhibitors by the core refinement strategy” (Eur J Med Chem, 2017)

Columns and labels:
[1] = molecular target: T1, Serine/threonine-protein kinase PAK 4 (Homo sapiens, UniProt O96013); experiment: Inhibition of recombinant human N-terminal GST-fused PAK4 (1 to 591 residues) expressed in baculovirus expression system using S2 as substrate measured after 40 mins by HTRF assay
[2] = molecular target: T1, Serine/threonine-protein kinase PAK 4; experiment: Inhibition of myc-tagged PAK4 (unknown origin) using histone H3 as substrate preincubated for 30 mins followed by substrate addition measured for 30 mins in presence of [gamma-32P]ATP by autoradiographic method
[3] = Oral bioavailability in metastatic solid tumor patient; format: ADME, organism-based; conditions: human, in vivo

T1 sequence (O96013 whole entry, the tested form may be a part): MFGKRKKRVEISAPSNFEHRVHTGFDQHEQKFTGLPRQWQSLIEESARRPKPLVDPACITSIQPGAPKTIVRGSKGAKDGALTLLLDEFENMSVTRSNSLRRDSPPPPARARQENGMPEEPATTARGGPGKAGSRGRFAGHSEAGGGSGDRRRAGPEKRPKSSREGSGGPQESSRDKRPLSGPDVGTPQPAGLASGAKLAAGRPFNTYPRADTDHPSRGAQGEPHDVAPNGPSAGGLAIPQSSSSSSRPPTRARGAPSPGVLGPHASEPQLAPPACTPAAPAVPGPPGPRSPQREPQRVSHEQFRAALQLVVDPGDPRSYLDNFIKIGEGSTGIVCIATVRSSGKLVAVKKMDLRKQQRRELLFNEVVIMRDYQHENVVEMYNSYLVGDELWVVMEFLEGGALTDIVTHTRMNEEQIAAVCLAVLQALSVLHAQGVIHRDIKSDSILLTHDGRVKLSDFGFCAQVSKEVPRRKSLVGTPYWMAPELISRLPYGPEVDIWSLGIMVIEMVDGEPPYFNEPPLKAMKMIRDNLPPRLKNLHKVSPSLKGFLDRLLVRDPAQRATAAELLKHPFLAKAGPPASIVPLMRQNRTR

Q: Which IC50 [1] does the source give for `Cc1cc(Nc2nc(NCCc3c[nH]c4ccccc34)c3cc(Cl)ccc3n2)cc2cn[nH]c12` here?
A: 2330 nM

Q: Which IC50 [2] does the source give for `COc1cccc(Nc2nc(NCC3CCCO3)c3ccccc3n2)c1` (configuration not stated) here?
A: 14500 nM

Q: For `COc1ccc2c(Nc3ccc4[nH]ncc4c3)nc(NCCc3c[nH]c4ccccc34)nc2c1`, which IC50 [1] is on record?
A: 483 nM

Q: For `Cc1nc(Nc2n[nH]c3c2CN(C(=O)N[C@H](CN(C)C)c2ccccc2)C3(C)C)c2sccc2n1` [PF-03758309], which bioavailability [3] is on record?
A: 1%

Q: Which IC50 [1] does the source give for `O=C1Cc2cc(Nc3nc(NCCc4c[nH]c5ccccc45)c4cc(Cl)ccc4n3)ccc2N1` here?
A: 1760 nM

Q: For `Clc1ccc2nc(Nc3cc(Br)c4[nH]ncc4c3)nc(NCCc3c[nH]c4ccccc34)c2c1`, which IC50 [1] is on record?
A: 1060 nM

Q: For `Clc1ccc2nc(Nc3cc(Cl)c4[nH]ncc4c3)nc(NCCc3c[nH]c4ccccc34)c2c1`, which IC50 [1] is on record?
A: 937 nM

Q: For `Clc1ccc2nc(Nc3cnc4[nH]ncc4c3)nc(NCCc3c[nH]c4ccccc34)c2c1`, which IC50 [1] is on record?
A: 633 nM

Q: For `Clc1ccc2nc(Nc3ccc4[nH]cnc4c3)nc(NCCc3c[nH]c4ccccc34)c2c1`, which IC50 [1] is on record?
A: 3070 nM

Q: With `Clc1ccc2nc(Nc3ccc4cn[nH]c4c3)nc(NCCc3c[nH]c4ccccc34)c2c1` as the compound, how does the IC50 [1] read?
A: 2040 nM

Q: Which IC50 [1] does the source give for `COc1ccc2nc(NCCc3c[nH]c4ccccc34)nc(Nc3ccc4[nH]ncc4c3)c2c1` here?
A: 1510 nM

Q: For `Clc1ccc2nc(Nc3ccc4[nH]nnc4c3)nc(NCCc3c[nH]c4ccccc34)c2c1`, which IC50 [1] is on record?
A: 1160 nM
